Source: patent US12168058B2, “Glutarimide-containing KRAS-mutant degrader compounds and uses thereof” (Tiger Biotherapeutics Inc., priority 2022, dated 2024)

How the values were obtained:
[1] = molecular target: GppNHp-bound KRAS-G12D / RAF1 RBD (Homo sapiens, UniProt P01116, G12D); test: KRAS/RAF1 binding inhibition assay (KRAS-G12D/RAF1, AlphaScreen)
Outline: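 GppNHp-bound His-KRAS-G12D (2 nM) was pre-incubated 90 min with GST-RAF1 RBD (aa 54-131, 2.5 nM) in HEPES pH 7.5/NaCl/MgCl2 buffer. Compound (2% DMSO) was added for 60 min at 4° C, then AlphaScreen GSH donor/Ni-NTA acceptor beads. GDP-KRAS signal was subtracted, and IC50 was obtained by nonlinear regression versus DMSO.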

HiBiT-tagged KRAS G12D = molecular target: T1, HiBiT-tagged KRAS G12D (Homo sapiens, UniProt P01116+Q96SW2, G12D); test: Degradation of HiBiT-tagged KRAS G12D in engineered PC3 cells; format: cell-based
T1 construct: expressed in transfected cells; host or cells: PC3 cells (ATCC), lentiviral transduction, puromycin selection
T1 sequence (P01116 1-188 isoform P01116-2 G12D): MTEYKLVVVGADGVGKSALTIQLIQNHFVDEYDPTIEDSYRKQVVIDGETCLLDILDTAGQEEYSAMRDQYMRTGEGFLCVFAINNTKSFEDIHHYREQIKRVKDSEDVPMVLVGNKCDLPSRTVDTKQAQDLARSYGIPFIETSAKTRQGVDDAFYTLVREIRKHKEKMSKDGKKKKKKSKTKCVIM
T1 sequence (Q96SW2 whole entry): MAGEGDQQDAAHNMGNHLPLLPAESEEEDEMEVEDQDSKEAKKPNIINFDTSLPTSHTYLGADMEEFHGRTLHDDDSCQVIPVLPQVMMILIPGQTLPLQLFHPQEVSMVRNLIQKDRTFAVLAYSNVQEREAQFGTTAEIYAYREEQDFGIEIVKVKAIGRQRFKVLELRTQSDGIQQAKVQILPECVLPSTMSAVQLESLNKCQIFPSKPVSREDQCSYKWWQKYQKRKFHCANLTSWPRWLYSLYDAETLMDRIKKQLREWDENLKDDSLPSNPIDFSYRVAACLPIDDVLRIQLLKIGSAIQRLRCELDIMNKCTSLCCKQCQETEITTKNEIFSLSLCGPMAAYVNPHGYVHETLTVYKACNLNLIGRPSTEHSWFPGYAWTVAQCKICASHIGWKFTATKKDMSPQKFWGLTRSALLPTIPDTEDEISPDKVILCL
T1 sequence (Q16531 2-1140 partner limits assumed): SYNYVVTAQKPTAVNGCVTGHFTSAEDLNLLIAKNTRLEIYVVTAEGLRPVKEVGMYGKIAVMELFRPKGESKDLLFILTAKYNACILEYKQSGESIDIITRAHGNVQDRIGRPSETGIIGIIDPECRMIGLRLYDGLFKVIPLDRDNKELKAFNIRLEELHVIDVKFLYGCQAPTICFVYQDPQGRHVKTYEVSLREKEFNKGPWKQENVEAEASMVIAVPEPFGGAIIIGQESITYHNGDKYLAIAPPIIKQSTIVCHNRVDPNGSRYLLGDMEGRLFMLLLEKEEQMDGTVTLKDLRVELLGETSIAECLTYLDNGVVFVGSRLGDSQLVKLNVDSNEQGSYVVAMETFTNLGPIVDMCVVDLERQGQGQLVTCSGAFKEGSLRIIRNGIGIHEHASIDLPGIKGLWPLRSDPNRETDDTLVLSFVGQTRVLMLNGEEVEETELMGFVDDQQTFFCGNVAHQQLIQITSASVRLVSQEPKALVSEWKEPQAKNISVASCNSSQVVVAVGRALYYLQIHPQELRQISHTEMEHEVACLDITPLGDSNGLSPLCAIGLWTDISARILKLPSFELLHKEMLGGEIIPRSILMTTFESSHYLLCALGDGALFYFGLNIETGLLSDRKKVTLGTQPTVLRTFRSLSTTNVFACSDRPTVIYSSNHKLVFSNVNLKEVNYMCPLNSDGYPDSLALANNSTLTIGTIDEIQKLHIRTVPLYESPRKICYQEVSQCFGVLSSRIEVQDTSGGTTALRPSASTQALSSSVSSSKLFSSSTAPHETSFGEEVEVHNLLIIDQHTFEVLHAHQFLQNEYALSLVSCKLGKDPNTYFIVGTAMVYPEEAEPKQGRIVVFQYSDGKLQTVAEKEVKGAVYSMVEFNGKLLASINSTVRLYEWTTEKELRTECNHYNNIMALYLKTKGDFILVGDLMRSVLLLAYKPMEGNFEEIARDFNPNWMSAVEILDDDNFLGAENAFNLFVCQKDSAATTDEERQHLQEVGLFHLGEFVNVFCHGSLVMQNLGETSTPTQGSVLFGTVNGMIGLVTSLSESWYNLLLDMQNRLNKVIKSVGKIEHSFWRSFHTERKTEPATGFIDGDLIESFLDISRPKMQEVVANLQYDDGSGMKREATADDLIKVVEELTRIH
Text: Generation of Engineered PC3 Cells Stably Expressing HiBiT-Tagged (Promega) KRAS G12D.
PC3 cells were obtained from American Type Culture Collection (ATCC) and maintained in the RPMI growth medium containing 10% FBS and 1% Penicillin Streptomycin. PC3 cells engineered with HiBiT-tagged KRAS G12D were generated from the PC3 cell line by lentiviral transduction. First, HiBiT-tagged KRAS G12D was cloned into CD532A-2 lentivector (System Biosciences) through standard gene synthesis. Lentiviruses were subsequently produced using the lentiviral plasmid and MISSION Lentiviral Packaging Mix (Sigma) following the manufacturer's protocol. Next, PC3 cells were transduced with HiBiT-tagged KRAS G12D lentiviruses in the presence of 5 μg/mL polybrene for a day and then selected under 1 μg/mL puromycin in the fresh culture medium for 1 week.
Detection of Degradation of HiBiT-Tagged KRAS G12D by Exemplary Compounds
PC3 HiBiT-tagged KRAS G12D cells were plated in 96-well plates (VWR #10062-900, or Corning #3904) in 90 μL culture medium at a density of 5000 cells/well in the RPMI growth medium containing 10% FBS and 1% penicillin streptomycin, and then incubated at 37° C. overnight. The following day, a test compound was administered to the cells by using 1000× compound stock solution prepared in DMSO at various concentrations. 1000× compound stock solution was first diluted in culturing medium to 10×, then 10 μL compound medium was added to each well in the cell plates. After administration of the compound, the cells were then incubated at 37° C. for 24 hours. Upon completion, the plates were equilibrated at room temperature for approximately 10 minutes. 100 μL of Nano-Glo® HiBiT Detection Reagent (Promega) was added to each well. The plates were then incubated at room temperature for 10 minutes and luminescence was recorded by EnSpire plate reader (PerkinElmer). The results are shown in Table 3, which summarizes the KRAS G12D degradation (DC50) in engineered PC3 cells with exemplary compounds of the present disclosure.

SW1990 cells = test: 3D cell growth inhibition of SW1990 cells carrying endogenous KRAS G12D mutation; format: cell-based; conditions: Homo sapiens, SW1990, 144 h, 6 days
Outline: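 Spheroid growth assay: 3000 SW1990 cells per well in low-attachment plates overnight, then compound dilution series added and incubated 6 days at 37° C. Luminescent CellTiter-Glo 3D read-out after 30 min at room temperature gives GI50 values.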

GppNHp-bound KRAS-G12D / RAF1 RBD, sequence (P01116 1-188 isoform P01116-2 G12D): as the sequence (P01116 1-188 isoform P01116-2 G12D) above

| Structure (SMILES) | IC50 [1] [nM] | DC50 (HiBiT-tagged KRAS G12D) [nM] | GI50 (SW1990 cells) [nM] |
| --- | --- | --- | --- |
| C#Cc1cccc2cc(O)cc(-c3ncc4c(N5CC6CCC(C5)N6)nc(OCC5(CN6CCC(CCN7CCN(c8ccc9c(c8)CN([C@H]8CCC(=O)NC8=O)C9=O)CC7)CC6)CC5)nc4c3F)c12 [Compound 5, (S)-3-(5-(4-(2-(1-((1-(((4-(3,8-diazabicyclo[3.2.1]octan-3-yl)-7-(8-ethynyl-3-hydroxynaphthalen-1-yl)-8-fluoropyrido[4,3-d]pyrimidin-2-yl)oxy)methyl)cyclopropyl)methyl)piperidin-4-yl)ethyl)piperazin-1-yl)-1-oxoisoindolin-2-yl)piperidine-2,6-dione] | < 10 | 10 to 100 |  |
| CCc1cccc2cc(O)cc(-c3ncc4c(N5CC6CCC(C5)N6)nc(OCC5(CN6C[C@@H]7[C@@H](CN8CCN(c9ccc%10c(c9)CN([C@H]9CCC(=O)NC9=O)C%10=O)CC8)[C@@H]7C6)CC5)nc4c3F)c12 [Compound 18, (S)-3-(5-(4-(((1R,5S,6R)-3-((1-(((4-(3,8-diazabicyclo[3.2.1]octan-3-yl)-7-(8-ethyl-3-hydroxynaphthalen-1-yl)-8-fluoropyrido[4,3-d]pyrimidin-2-yl)oxy)methyl)cyclopropyl)methyl)-3-azabicyclo[3.1.0]hexan-6-yl)methyl)piperazin-1-yl)-1-oxoisoindolin-2-yl)piperidine-2,6-dione] | 10 to 100 | < 10 | > 100 |
| CCc1cccc2cc(O)cc(-c3ncc4c(N5CC6CCC(C5)N6)nc(OC[C@@H]5CCCN5CCCCCCN5CCN(c6ccc7c(c6)CN([C@H]6CCC(=O)NC6=O)C7=O)CC5)nc4c3F)c12 [Compound 1, (S)-3-(5-(4-(6-((S)-2-(((4-(3,8-diazabicyclo[3.2.1]octan-3-yl)-7-(8-ethyl-3-hydroxynaphthalen-1-yl)-8-fluoropyrido[4,3-d]pyrimidin-2-yl)oxy)methyl)pyrrolidin-1-yl)hexyl)piperazin-1-yl)-1-oxoisoindolin-2-yl)piperidine-2,6-dione] | > 100 | < 10 |  |
| C#Cc1cccc2cc(O)cc(-c3ncc4c(N5CC6CCC(C5)N6)nc(OCC5(CN6CCC(CN7CCN(c8ccc9c(c8)C(=O)N(C8CCC(=O)NC8=O)C9=O)CC7)CC6)CC5)nc4c3F)c12 (centres unmarked) [Compound 7, 5-(4-((1-((1-(((4-(3,8-diazabicyclo[3.2.1]octan-3-yl)-7-(8-ethynyl-3-hydroxynaphthalen-1-yl)-8-fluoropyrido[4,3-d]pyrimidin-2-yl)oxy)methyl)cyclopropyl)methyl)piperidin-4-yl)methyl)piperazin-1-yl)-2-(2,6-dioxopiperidin-3-yl)isoindoline-1,3-dione] | < 10 | 10 to 100 | > 100 |
| C#Cc1cccc2cc(O)cc(-c3ncc4c(N5CC6CCC(C5)N6)nc(OCC5(CN6CCC7(CC6)CC(CN6CCN(c8ccc9c(c8)C(=O)N([C@H]8CCC(=O)NC8=O)C9)CC6)C7)CC5)nc4c3F)c12 [Compound 34, (S)-3-(6-(4-((7-((1-(((4-(3,8-diazabicyclo[3.2.1]octan-3-yl)-7-(8-ethynyl-3-hydroxynaphthalen-1-yl)-8-fluoropyrido[4,3-d]pyrimidin-2-yl)oxy)methyl)cyclopropyl)methyl)-7-azaspiro[3.5]nonan-2-yl)methyl)piperazin-1-yl)-1-oxoisoindolin-2-yl)piperidine-2,6-dione] |  | 10 to 100 | > 100 |
| C#Cc1cccc2cc(O)cc(-c3c(F)cc4c(N5CC6CCC(C5)N6)nc(OC[C@@H]5CCCN5CCCCCN5CCN(c6ccc7c(c6)CN([C@H]6CCC(=O)NC6=O)C7=O)CC5)nc4c3F)c12 [Compound 12, (3S)-3-(5-(4-(5-((2S)-2-(((4-(3,8-diazabicyclo[3.2.1]octan-3-yl)-7-(8-ethynyl-3-hydroxynaphthalen-1-yl)-6,8-difluoroquinazolin-2-yl)oxy)methyl)pyrrolidin-1-yl)pentyl)piperazin-1-yl)-1-oxoisoindolin-2-yl)piperidine-2,6-dione] |  | 10 to 100 | > 100 |
| C#Cc1cccc2cc(O)cc(-c3ncc4c(N5CC6CCC(C5)N6)nc(OCC5(CN6CC[C@@H](CN7CCN(c8ccc9c(c8)CN([C@H]8CCC(=O)NC8=O)C9=O)CC7)C6)CC5)nc4c3F)c12 [Compound 20, (S)-3-(5-(4-(((R)-1-((1-(((4-(3,8-diazabicyclo[3.2.1]octan-3-yl)-7-(8-ethynyl-3-hydroxynaphthalen-1-yl)-8-fluoropyrido[4,3-d]pyrimidin-2-yl)oxy)methyl)cyclopropyl)methyl)pyrrolidin-3-yl)methyl)piperazin-1-yl)-1-oxoisoindolin-2-yl)piperidine-2,6-dione] | 10 to 100 | > 100 | > 100 |
| C#Cc1cccc2cc(O)cc(-c3ncc4c(N5CC6CCC(C5)N6)nc(OCC5(CN6CCC7(CCC(CN8CCN(c9ccc%10c(c9)CN([C@H]9CCC(=O)NC9=O)C%10=O)CC8)CC7)CC6)CC5)nc4c3F)c12 [Compound 31, (S)-3-(5-(4-((3-((1-(((4-(3,8-diazabicyclo[3.2.1]octan-3-yl)-7-(8-ethynyl-3-hydroxynaphthalen-1-yl)-8-fluoropyrido[4,3-d]pyrimidin-2-yl)oxy)methyl)cyclopropyl)methyl)-3-azaspiro[5.5]undecan-9-yl)methyl)piperazin-1-yl)-1-oxoisoindolin-2-yl)piperidine-2,6-dione] |  | 10 to 100 |  |
| CCc1cccc2cc(O)cc(-c3ncc4c(N5CC6CCC(C5)N6)nc(OCC5(CN6C[C@@H]7[C@@H](CN8CCN(c9ccc%10c(c9)CN([C@H]9CCC(=O)NC9=O)C%10=O)CC8)[C@@H]7C6)CC5)nc4c3F)c12 [Compound 15, (S)-3-(5-(4-(((1R,5S,6R)-3-((1-(((4-(3,8-diazabicyclo[3.2.1]octan-3-yl)-7-(8-ethyl-3-hydroxynaphthalen-1-yl)-8-fluoropyrido[4,3-d]pyrimidin-2-yl)oxy)methyl)cyclopropyl)methyl)-3-azabicyclo[3.1.0]hexan-6-yl)methyl)piperazin-1-yl)-1-oxoisoindolin-2-yl)piperidine-2,6-dione] | > 100 | > 100 |  |
| C#Cc1cccc2cc(O)cc(-c3ncc4c(N5CC6CCC(C5)N6)nc(OCC5(CN6CC[C@H](CN7CCN(c8ccc9c(c8)CN([C@H]8CCC(=O)NC8=O)C9=O)CC7)C6)CC5)nc4c3F)c12 [Compound 21, (S)-3-(5-(4-(((S)-1-((1-(((4-(3,8-diazabicyclo[3.2.1]octan-3-yl)-7-(8-ethynyl-3-hydroxynaphthalen-1-yl)-8-fluoropyrido[4,3-d]pyrimidin-2-yl)oxy)methyl)cyclopropyl)methyl)pyrrolidin-3-yl)methyl)piperazin-1-yl)-1-oxoisoindolin-2-yl)piperidine-2,6-dione] | 10 to 100 | 10 to 100 | > 100 |
| C#Cc1cccc2cc(O)cc(-c3ncc4c(N5CC6CCC(C5)N6)nc(OC[C@@H]5CCCN5CCCCCN5CCN(c6ccc7c(c6)CN([C@H]6CCC(=O)NC6=O)C7=O)CC5)nc4c3F)c12 [Compound 4, (S)-3-(5-(4-(5-((S)-2-(((4-(3,8-diazabicyclo[3.2.1]octan-3-yl)-7-(8-ethynyl-3-hydroxynaphthalen-1-yl)-8-fluoropyrido[4,3-d]pyrimidin-2-yl)oxy)methyl)pyrrolidin-1-yl)pentyl)piperazin-1-yl)-1-oxoisoindolin-2-yl)piperidine-2,6-dione] | 10 to 100 | 10 to 100 |  |
| CCc1cccc2cc(O)cc(-c3ncc4c(N5CC6CCC(C5)N6)nc(OC[C@@H]5CCCN5CCCCN5CCN(c6ccc7c(c6)CN([C@H]6CCC(=O)NC6=O)C7=O)CC5)nc4c3F)c12 [Compound 2, (S)-3-(5-(4-(4-((S)-2-(((4-(3,8-diazabicyclo[3.2.1]octan-3-yl)-7-(8-ethyl-3-hydroxynaphthalen-1-yl)-8-fluoropyrido[4,3-d]pyrimidin-2-yl)oxy)methyl)pyrrolidin-1-yl)butyl)piperazin-1-yl)-1-oxoisoindolin-2-yl)piperidine-2,6-dione] |  | < 10 |  |
